For one compound, IC50 results are on record in ChEMBL document CHEMBL1144470, “Occurrence of the alpha-glucosidase inhibitor 1,4-Dideoxy-1,4-imino-D-arabinitol and related iminopentitols in marine sponges” (J Nat Prod, 2007).

In brackets after ≈: the same amount, converted by molar mass.

Broadly, the IC50 is the midpoint of a concentration-inhibition curve.

The nature of this experiment: Inhibition of yeast alpha-glucosidase. Set-up: species or system Saccharomyces cerevisiae.

Regarding `OC[C@H]1NC[C@@H](O)[C@@H]1O`, the IC50 was 0.16 µg/mL (≈ 1.2 µM).
